Data on 3 molecules can be found in US7670613B2, “Androgen modulators” (Pfizer Inc., priority 2004, dated 2010).

The structures appear in SMILES notation. Like-named read-outs stand apart in the source and are kept apart here.

This experiment concerns the target T1, androgen receptor (Homo sapiens, UniProt P10275, Q868H).
T1 construct: a human breast tumor cell line expressing androgen receptor; endogenous in cells; host or cells: MDA-MB453-MMTV clone 54-19 (only the MMTV-luciferase reporter was transfected)
T1 sequence (P10275 1-920 Q868H): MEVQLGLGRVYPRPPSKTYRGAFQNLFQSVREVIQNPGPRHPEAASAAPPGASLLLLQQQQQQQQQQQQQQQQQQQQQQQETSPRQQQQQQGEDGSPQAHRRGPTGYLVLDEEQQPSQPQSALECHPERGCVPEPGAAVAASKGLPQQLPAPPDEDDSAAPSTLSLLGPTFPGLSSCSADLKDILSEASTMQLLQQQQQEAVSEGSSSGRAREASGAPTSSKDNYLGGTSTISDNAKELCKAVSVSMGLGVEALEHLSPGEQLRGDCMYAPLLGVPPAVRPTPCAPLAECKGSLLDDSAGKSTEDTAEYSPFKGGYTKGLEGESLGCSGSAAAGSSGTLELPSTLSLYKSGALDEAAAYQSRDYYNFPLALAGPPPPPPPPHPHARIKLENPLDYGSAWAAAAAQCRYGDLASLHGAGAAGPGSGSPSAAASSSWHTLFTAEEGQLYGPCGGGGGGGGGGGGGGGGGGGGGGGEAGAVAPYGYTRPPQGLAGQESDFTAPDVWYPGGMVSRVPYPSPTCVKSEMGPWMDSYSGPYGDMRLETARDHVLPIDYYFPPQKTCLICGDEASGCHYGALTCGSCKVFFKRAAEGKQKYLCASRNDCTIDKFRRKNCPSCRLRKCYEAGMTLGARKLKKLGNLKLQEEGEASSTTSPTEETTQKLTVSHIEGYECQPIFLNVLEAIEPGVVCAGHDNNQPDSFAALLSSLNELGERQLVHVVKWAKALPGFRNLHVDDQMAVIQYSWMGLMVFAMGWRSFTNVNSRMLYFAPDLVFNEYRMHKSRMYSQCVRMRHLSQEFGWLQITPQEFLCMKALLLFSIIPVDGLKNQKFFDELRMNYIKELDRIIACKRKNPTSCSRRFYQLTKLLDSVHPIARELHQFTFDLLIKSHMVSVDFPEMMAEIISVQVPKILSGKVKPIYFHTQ
In words: AR antagonist cell assay (MDA-MB453-MMTV clone 54-19, luciferase reporter). The experiment is classed as cell-based. To be noted: 100 pM DHT, 17 hr, mean of multiple tests. As to the method:
The compounds ability to antagonize the effects of androgen on the androgen receptor were determined in a whole cell assay as described immediately below.
Experimental Procedure for AR Antagonist Cell Assay
This cell line is a stable transfected cell line with MDA-MB453 cell background (a human breast tumor cell line expressing androgen receptor). A MMTV minimal promoter containing ARE was first cloned in front of a firefly luciferase reporter gene. Then the cascade was cloned into transfection vector pUV120puro. Electroporation method was used for transfecting MDA-MB-453 cell. Puromycin resistant stable cell line was selected.
Cell Culture Media and Reagents:
Culture medium: DMEM (high glucose, Gibco cat #: 11960-044), 10% FBS, and 1% L-glutamine
Plating medium: DMEM (phenol red free), 10% charcoal treated HyClone serum, 1% L-glutamine
Assay medium: DMEM (phenol red free), 1% charcoal treated HyClone serum, 1% L-glutamine, and 1% penicillin/streptomycin
3× luciferase buffer: 2% beta-mercaptoethanol, 0.6% ATP, 0.0135% luciferine in cell lysis buffer
• 1. Cells are maintained in culture medium, splitting cells when they reach 80-90% confluence • 2. To test compounds, 10,000 cells/well are plated to opaque 96 cell culture plate in 100 ul/well plating medium, culture for overnight at 37° C. in cell culture incubator • 3. Carefully remove plating medium, then add 80 ul/well of pre-warmed assay medium, add 10 ul/well testing compound (final concentration at) 1000 nM, 200 nM, 40 nM, 8 nM, 1.6 nM, and 0.32 nM), incubate at 37° C. for 30 minutes • 4. Add 10 ul/well freshly prepared DHT (final concentration at 100 pM) to each well, incubate at 37° C. for 17 hr (overnight) • 5.
The results are reported as the mean of multiple tests as described below (the numbers of tests are indicated in the footnote). N.D. denotes that the compound was not tested.

Setting [1] is: AR Cell IC50, MDA-MB453-MMTV clone 54-19 cells.

With `N#Cc1ccc(O[C@@H]2CCCC[C@H]2C#N)cc1C(F)(F)F` (single isomer, unassigned) [Example 72, (trans)-(−)-4-(2-Cyano-cyclohexyloxy)-2-trifluoromethyl-benzonitrile], the IC50 (as a rule, the point on the concentration scale where inhibition reaches its midpoint) under setting [1] was 12 nM.

On to `N#Cc1ccc(O[C@@H]2CCCCC2C#N)cc1C(F)(F)F` (stereo in doubt) [Example 14, -4-(2-Cyano-cyclohexyloxy)-2-trifluoromethyl-benzonitrile], for which 13 nM corresponded to half-maximal inhibition under setting [1] (IC50).

As for `CC1CCCCC1Oc1ccc(C#N)c(C(F)(F)F)c1` (stereo not drawn) [Example 8, 4-(2-Methyl-cyclohexyloxy)-2-trifluoromethyl-benzonitrile], for the setting “MDA-MB453-MMTV clone 54-19 cells, read-out: AR Cell IC50”, the IC50 was 494 nM.
